Data: patent US20250134890A1, “ANTIMALARIAL HEXAHYDROPYRIMIDINE ANALOGUES” (UCB BIOPHARMA SRL, priority 2022, published 2025)
Where a name gives a salt, the structure may show the parent alone.

test system: Plasmodium falciparum: 3D7 strain; test: P. falciparum 3D7 asexual blood stage assay (SYBR green readout); assay type: cell-based; conditions: Plasmodium falciparum, 3D7, Erythrocyte, 72 h, P. falciparum 3D7 in human erythrocytes, 72 h incubation, SYBR green fluorescence
Method in brief: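 3D7-infected erythrocytes (5% haematocrit, 0.5% parasitaemia) were exposed 72 h at 37 °C under 1% O2/3% CO2 to a 20-point titration (50,000-15 nM final, 0.5% DMSO). Parasite DNA was read by SYBR green fluorescence after overnight lysis. Percent inhibition was set against mefloquine and DMSO, and EC50 came from a biphasic two-site fit.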

Compound | IC50
C[C@@H]1C[C@H](N2C(=N)N[C@](C)(c3cccc(-c4cccc(Cl)c4)c3Cl)CC2=O)CC[C@H]1O (relative stereo) [Example 104, (6S)-6-[2-Chloro-3-(3-chloro-phenyl)phenyl]-3-[(1S*,3S*,4S*)-4-hydroxy-3-methylcyclohexyl]-2-imino-6-methylhexahydro-pyrimidin-4-one hydrochloride] | 4.94 µM
C[C@H]1C[C@@H](N2C(=N)N[C@](C)(c3cccc(-c4ccc(Cl)nc4)c3Cl)CC2=O)CCO1 [Example 55, (6S)-6-[2-Chloro-3-(6-chloro-pyridin-3-yl)phenyl]-2-imino-6-methyl-3-[(2S,4S)-2-methyl-tetrahydropyran-4-yl]hexahydro-pyrimidin-4-one trifluoroacetic acid salt] | 0.011 µM
C[C@@H]1C[C@@H](N2C(=N)N[C@](C)(c3cccc(-c4ccc(F)cc4F)c3Cl)CC2=O)CCS1(=O)=O (relative stereo) [Example 66, (6S)-6-[2-Chloro-3-(2,4-difluoro-phenyl)phenyl]-2-imino-6-methyl-3-[(2R*,4S*)-2-methyl-1,1-dioxo-thian-4-yl]hexahydropyrimidin-4-one hydrochloride] | 0.272 µM
C[C@H]1C[C@@H](N2C(=N)N[C@](C)(c3cccc(-c4cc(F)cc(F)c4)c3Cl)CC2=O)CCO1 [Example 44, (6S)-6-[2-Chloro-3-(3,5-difluoro-phenyl)phenyl]-2-imino-6-methyl-3-[(2S,4S)-2-methyltetrahydro-pyran-4-yl]hexahydropyrimidin-4-one trifluoroacetic acid salt] | 0.103 µM
C[C@H]1C[C@@H](N2C(=N)N[C@](C)(c3cccc(-c4ccc(F)cc4F)c3Cl)CC2=O)CCS1(=O)=O (relative stereo) [Example 64, (6S)-6-[2-Chloro-3-(2,4-difluoro-phenyl)phenyl]-2-imino-6-methyl-3-[(2S*,4S*)-2-methyl-1,1-dioxo-thian-4-yl]hexahydropyrimidin-4-one hydrochloride] | 0.207 µM
C[C@H]1C[C@@H](N2C(=N)N[C@](C)(c3cccc(-c4cn(C5CCC5)nn4)c3Cl)CC2=O)CCO1 [Example 122, (6S)-6-[2-Chloro-3-(1-cyclobutyl-1,2,3-triazol-4-yl)phenyl]-2-imino-6-methyl-3-[(2S,4S)-2-methyl-tetrahydropyran-4-yl]hexahydro-pyrimidin-4-one trifluoroacetic acid salt] | 0.101 µM
C[C@@H]1C[C@@H](N2C(=N)N[C@](C)(c3cccc(-c4ccc(Cl)cn4)c3Cl)CC2=O)CCS1(=O)=O (relative stereo) [Example 77, (6S)-6-[2-Chloro-3-(5-chloro-pyridin-2-yl)phenyl]-2-imino-6-methyl-3-[(2R*,4S*)-2-methyl-1,1-dioxothian-4-yl]hexahydro-pyrimidin-4-one hydrochloride] | 0.46 µM
C[C@H]1C[C@@H](N2C(=N)N[C@](C)(c3cccc(-c4ccc(Cl)cc4Cl)c3Cl)CC2=O)CCO1 [Example 16, (6S)-6-[2-Chloro-3-(2,4-dichloro-phenyl)phenyl]-2-imino-6-methyl-3-[(2S,4S)-2-methyltetrahydro-pyran-4-yl]hexahydropyrimidin-4-one trifluoroacetic acid salt] | 0.066 µM
C[C@@]1(c2cccc(-c3cncc(Cl)c3)c2Cl)CC(=O)N([C@@H]2CCC(F)(F)[C@H](O)C2)C(=N)N1 (relative stereo) [Example 23, (6S)-6-[2-Chloro-3-(5-chloro-pyridin-3-yl)phenyl]-3-[(1R*,3R*)-4,4-difluoro-3-hydroxycyclohexyl]-2-imino-6-methylhexahydro-pyrimidin-4-one hydrochloride] | 0.158 µM
C[C@H]1C[C@@H](N2C(=N)N[C@](C)(c3cccc(-c4ccn(C)c(=O)c4)c3Cl)CC2=O)CCO1 [Example 34, (6S)-6-[2-Chloro-3-(1-methyl-2-oxopyridin-4-yl)phenyl]-2-imino-6-methyl-3-[(2S,4S)-2-methyl-tetrahydropyran-4-yl]hexahydro-pyrimidin-4-one trifluoroacetic acid salt] | 0.286 µM
C[C@@]1(c2cccc(-c3cnn(CC(F)(F)F)c3)c2Cl)CC(=O)N([C@H]2CCC(F)(F)[C@@H](O)C2)C(=N)N1 (relative stereo) [Example 85, (6S)-6-{2-Chloro-3-[1-(2,2,2-trifluoroethyl)pyrazol-4-yl]phenyl}-3-[(1S*,3S*)-4,4-difluoro-3-hydroxycyclohexyl]-2-imino-6-methylhexahydropyrimidin-4-one hydrochloride] | 2.67 µM

same assay, conditions: Plasmodium falciparum, Erythrocyte; P. falciparum 3D7 in human erythrocytes, 72 h incubation, SYBR green fluorescence; read-out: IC50

Compound | IC50
CN(C)[C@H]1C[C@@H](N2C(=N)N[C@](C)(c3cccc(-c4ccc(F)cc4F)c3Cl)CC2=O)C1 (single isomer, unassigned; isomer 2) [Example 89] | 7.95 µM
